The source of these data is patent US8198447B2, “Fused tricyclic compound having aldose reductase inhibitory activity” (National University Corporation University of Toyama, priority 2007, dated 2012).

The first assay has as its target Aldose reductase II (Homo sapiens, UniProt P15121). Briefly: Aldose reductase inhibitory activity (NADPH decrease at 340 nm, DL-glyceraldehyde substrate). It is filed as biochemical. Conditions: pH 6.2, 100 mM DL-glyceraldehyde, 1.5 mM NADPH. Here is the method: A reaction solution containing a 200 mM of a phosphate buffer solution (pH 6.2), 1.5 mM of reduced nicotinamide adenine dinucleotide phosphate (NADPH), 1 mg/ml of bovine serum albumin, a test compound, and 100 mM of DL-glyceraldehyde as a substrate was prepared. Aldose reductase II (5.1×10^−1 unit/ml) was added to the solution to initiate the reaction, and the amount of NADPH reduced by the reaction was measured at an absorption wavelength of 340 nm using a spectrophotometer.
As a reminder, the IC50 is the concentration that inhibits the measured activity by half. In turn, `CC(C)(C)OC(=O)Cn1c2c(c3cc(F)ccc31)CCN(Cc1ccccc1)C2=S` [Compound 23, (2-benzyl-6-fluoro-1-thioxo-1,2,3,4-tetrahydro-β-carbolin-9-yl)acetic acid tert-butyl ester] gave a concentration for half-maximal inhibition (IC50) of 5.6 µM.
On the same count and under the same terms, under `O=C(O)Cn1c2c(c3ccccc31)CCN(C(=O)c1ccccc1)C2=O` [Compound 55, (2-Benzoyl-1-oxo-1,2,3,4-tetrahydro-β-carbolin-9-yl)acetic acid] stands 53.1 µM.
Still for that read-out and setting: next, `COc1ccc2c(c1)c1c(n2CC(=O)O)C(=O)SCC1` [Compound 61, (6-Methoxy-1-oxo-3,4-dihydro-1H-2-thia-9-azafluoren-9-yl)acetic acid]: 2.6 µM.
The same measure, in the same setting: under `O=C(O)Cn1c2c(c3ccccc31)CCN(C(=O)c1ccc(Br)cc1F)C2=O` [Compound 51, [2-(2-Fluoro-4-bromobenzoyl)-1-oxo-1,2,3,4-tetrahydro-β-carbolin-9-yl]acetic acid] stands 68.3 µM; under `COc1cc(C(=O)N2CCc3c(n(CC(=O)O)c4ccccc34)C2=O)cc(OC)c1OC` [Compound 53, [2-(3,4,5-Trimetoxybenzoyl)-1-oxo-1,2,3,4-tetrahydro-β-carbolin-9-yl]acetic acid], 46.8 µM.
Turning to `O=C(O)Cn1c2c(c3c(Cl)cccc31)CCSC2=O` [Compound 64, (5-Chloro-1-oxo-3,4-dihydro-1H-2-thia-9-azafluoren-9-yl)acetic acid], it took 3.6 µM to reach half-maximal inhibition (IC50).
On the same count and under the same terms, next, `O=C(O)Cn1c2c(c3ccccc31)CCN(C(=O)c1cc(F)cc(F)c1)C2=O` [Compound 50, [2-(3.5-Difluorobenzoyl)-1-oxo-1,2,3,4-tetrahydro-β-carbolin-9-yl]acetic acid]: 34.5 µM; `O=C(O)Cn1c2c(c3c(F)cc(F)cc31)CCN(Cc1ccc(Br)cc1F)C2=S` [Compound 39]: 21.1 µM; `O=C(O)Cn1c2c(c3cc(Cl)ccc31)CCSC2=O` [Compound 56, (6-chloro-1-oxo-3,4-dihydro-1H-2-thia-9-azafluoren-9-yl)acetic acid]: 1.1 µM.
Still for that read-out and setting: next, `O=C(O)Cn1c2c(c3cc(Br)ccc31)CCN(Cc1ccccc1)C2=S` [Compound 32, (2-Benzyl-6-bromo-1-thioxo-1,2,3,4-tetrahydro-β-carbolin-9-yl)acetic acid]: 6.2 µM.
Still for that read-out and setting: next, `O=C(O)Cn1c2c(c3ccccc31)CCN(C(=O)c1ccc(F)cc1)C2=O` [Compound 46, [2-(4-fluorobenzoyl)-1-oxo-1,2,3,4-tetrahydro-β-carbolin-9-yl)acetic acid]: 21.7 µM.
In turn, `O=C(O)Cn1c2c(c3cc(F)ccc31)CCN(Cc1ccccc1F)C2=O` [Compound 25, [2-(2-Fluorophenylmethyl)-6-fluoro-1-oxo-1,2,3,4-tetrahydro-β-carbolin-9-yl]acetic acid] registered an IC50 of 48.6 µM.
Still for that read-out and setting: under `O=C(O)Cn1c2c(c3cc(Cc4ccccc4)ccc31)CCSC2=O` [Compound 60, (6-Benzyl-1-oxo-3,4-dihydro-1H-2-thia-9-azafluoren-9-yl)acetic acid] stands 3.6 µM; under `O=C(O)COc1ccc2c(c1)c1c(n2CC(=O)O)C(=S)N(Cc2ccccc2)CC1` [Compound 42, (2-Benzyl-6-carboxymethoxy-1-thioxo-1,2,3,4-tetrahydro-β-carbolin-9-yl)acetic acid], 2.6 µM.
Still for that read-out and setting: under `O=C(O)Cn1c2c(c3ccccc31)CCN(C(=O)c1cc(O)c(O)c(O)c1)C2=O` [Compound 54, [2-(3,4,5-Trihydroxybenzoyl)-1-oxo-1,2,3,4-tetrahydro-β-carbolin-9-yl]acetic acid] stands 48 µM; under `O=C(O)Cn1c2c(c3cc(F)ccc31)CCN(Cc1ccccc1)C2=O` [Compound 22, (2-Benzyl-6-fluoro-1-oxo-1,2,3,4-tetrahydro-β-carbolin-9-yl)acetic acid], 51.5 µM; under `Cc1ccc2c(c1)c1c(n2CC(=O)O)C(=O)SCC1` [Compound 58, (6-Methyl-1-oxo-3,4-dihydro-1H-2-thia-9-azafluoren-9-yl)acetic acid], 1.6 µM.
Still for that read-out and setting: under `CC(C)(C)c1ccc2c(c1)c1c(n2CC(=O)O)C(=O)SCC1` [Compound 59, (6-tert-Butyl-1-oxo-3,4-dihydro-1H-2-thia-9-azafluoren-9-yl)acetic acid] stands 1.4 µM; under `O=C(O)Cn1c2c(c3ccc(Cl)cc31)CCN(Cc1ccccc1)C2=S` [Compound 38, (2-Benzyl-7-chloro-1-thioxo-1,2,3,4-tetrahydro-β-carbolin-9-yl)acetic acid], 3.7 µM; under `O=C(O)Cn1c2c(c3ccccc31)CCN(Cc1ccccc1)C2=S` [Compound 26, (2-Benzyl-1-thioxo-1,2,3,4-tetrahydro-β-carbolin-9-yl)acetic acid], 4.2 µM.
`O=C(O)Cn1c2c(c3cc(Cl)ccc31)CCOC2=S` [Compound 31, (6-chloro-1-thioxo-3,4-dihydro-1H-pyrano[3,4-b]indol-9-yl) acetic acid] had an IC50 of 11.1 µM.
On the same count and under the same terms, under `O=C(O)Cn1c2c(c3ccccc31)CCN(C(=O)c1ccc(Br)cc1)C2=O` [Compound 47, [2-(4-Bromobenzoyl)-1-oxo-1,2,3,4-tetrahydro-β-carbolin-9-yl]acetic acid] stands 34.6 µM.
Same read-out and setting: under `O=C(O)Cn1c2c(c3cc(O)ccc31)CCN(Cc1ccccc1)C2=S` [Compound 40, (2-Benzyl-6-hydroxy-1-thioxo-1,2,3,4-tetrahydro-β-carbolin-9-yl)acetic acid] stands 4.8 µM; under `O=C(O)Cn1c2c(c3c4c(ccc31)CCCC4)CCSC2=O` [Compound 66, (8-Oxo-1,3,4,8,10,11-hexahydro-2H-9-thia-7-azabenzo[c]fluoren-7-yl)acetic acid], 1 µM.
Same read-out and setting: next, `COc1ccc(C(=O)N2CCc3c(n(CC(=O)O)c4ccccc34)C2=O)cc1` [Compound 48]: 35.8 µM.
The compound `O=C(O)Cn1c2c(c3cc4c(cc31)CCCC4)CCSC2=O` [Compound 65, (1-Oxo-3,4,6,7,8,9-hexahydro-1H-2-thia-11-azabenzo[b]fluoren-11-yl)acetic acid] showed an IC50 of 3.4 µM.
Compound `Cc1cc(C)c2c3c(n(CC(=O)O)c2c1)C(=O)SCC3` [Compound 63, (5,7-Dimethyl-1-oxo-3,4-dihydro-1H-2-thia-9-azafluoren-9-yl)acetic acid] returned an IC50 of 5.9 µM.
Same read-out and setting: under `O=C(O)Cn1c2c(c3ccccc31)CCN(CC1CCCCC1)C2=S` [Compound 34, (2-Cyclohexylmethyl-1-thioxo-1,2,3,4-tetrahydro-β-carbolin-9-yl)acetic acid] stands 7.2 µM; under `O=C(O)Cn1c2c(c3ccc(Cl)cc31)CCN(Cc1ccc(Br)cc1F)C2=S` [Compound 37], 27.4 µM; under `O=C(O)Cn1c2c(c3ccccc31)CCN(c1ccccc1)C2=S` [Compound 33, (2-Phenyl-1-thioxo-1,2,3,4-tetrahydro-β-carbolin-9-yl)acetic acid], 36.3 µM.
Still for that read-out and setting: next, `O=C(O)Cn1c2c(c3ccccc31)CCSC2=O` [Compound 57, (1-Oxo-3,4-dihydro-1H-2-thia-9-azafluoren-9-yl)acetic acid]: 2.8 µM.
In turn, `O=C(O)Cn1c2c(c3ccccc31)CCN(Cc1ccco1)C2=S` [Compound 35, [2-(2-Furanylmethyl)-1-thioxo-1,2,3,4-tetrahydro-β-carbolin-9-yl]acetic acid] yielded an IC50 of 16.3 µM.
On the same count and under the same terms, under `COc1ccc2c(c1)c1c(n2CC(=O)O)C(=S)N(Cc2ccccc2)CC1` [Compound 29, (2-Benzyl-6-methoxy-1-thioxo-1,2,3,4-tetrahydro-β-carbolin-9-yl)acetic acid] stands 5.7 µM.
The same measure, in the same setting: next, `O=C(O)Cn1c2c(c3cc(Cl)ccc31)CCN(Cc1ccccc1)C2=S` [Compound 27, (2-Benzyl-6-chloro-1-thioxo-1,2,3,4-tetrahydro-β-carbolin-9-yl)acetic acid]: 5 µM.
On the same count and under the same terms, next, `O=C(O)Cn1c2c(c3ccccc31)CCN(Cc1cccs1)C2=S` [Compound 36, [2-(2-Thienylmethyl)-1-thioxo-1,2,3,4-tetrahydro-β-carbolin-9-yl]acetic acid]: 7.6 µM.
`O=C(O)Cn1c2c(c3cc(C4CCCCC4)ccc31)CCSC2=O` [Compound 62, (6-Cyclohexyl-1-oxo-3,4-dihydro-1H-2-thia-9-azafluoren-9-yl)acetic acid] yielded an IC50 of 5.6 µM.
On the same count and under the same terms, next, `O=C(O)Cn1c2c(c3ccccc31)CCN(C(=O)c1ccc(F)cc1F)C2=O` [Compound 49, [2-(2,4-Difluorobenzoyl)-1-oxo-1,2,3,4-tetrahydro-β-carbolin-9-yl]acetic acid]: 45.3 µM.

The subject of the next assay is mouse leukemia adriamycin sensitive strain P388/S. Briefly: Cancer cell sensitivity test (MTT). The format is cell-based. The settings on record: Mus musculus; P388/S cells, test compound 25 μM, 44 hours, MTT-formazan at 540 nm; read-out: INHIBITORY RATE (%). As for the experimental part: Cells of mouse leukemia adriamycin sensitive strain P388/S were cultured in an RPMI1640 culture medium (5% fetal bovine serum, […] 2-mercaptoethanol, 30 μM kanamycin) under conditions of 37° C. and 5% CO2, and used for a compound sensitivity test.
The cell suspension (1.35×10^4 cells/ml) was added to a 96 well plate, 100 μl per well.
After culturing under the conditions of 37° C. and 5% CO2 for 16 hours, a solution of the test compound dissolved in DMSO to a concentration of 25 μM was added, followed by continuation of culture for a further 44 hours, while only DMSO was added to a control to continue the culture.
After culturing, […] (PBS, pH 7.4), was added in an amount of 25 μl/well, followed by incubation for four hours to produce MTT-formazan.
After removing supernatant by aspiration, 200 μl of DMSO was added and the absorbance of MTT-formazan at 540 nm was measured.
Take `O=C(O)Cn1c2c(c3ccccc31)CCN(Cc1ccccc1)C2=S` [Compound 26, (2-Benzyl-1-thioxo-1,2,3,4-tetrahydro-β-carbolin-9-yl)acetic acid]: the inhibition at 25 µM is 88.1%.
On the same count and under the same terms, next, `CCOC(=O)Cn1c2c(c3cc(F)ccc31)CCN(Cc1ccccc1)C2=O` [Compound 22a, (2-Benzyl-6-fluoro-1-oxo-1,2,3,4-tetrahydro-β-carbolin-9-yl)acetic acid ethyl ester]: 34.5%.

The same assay, now with this note: P388/S cells, test compound 25 μM, 44 hours, MTT-formazan at 540 nm.
In the case of `CC(C)(C)OC(=O)Cn1c2c(c3cc(F)ccc31)CCN(Cc1ccccc1)C2=S` [Compound 23, (2-benzyl-6-fluoro-1-thioxo-1,2,3,4-tetrahydro-β-carbolin-9-yl)acetic acid tert-butyl ester], the “INHIBITORY RATE (%)” value is 92.9%.
